According to paper PMC10673615, “Quercetin-1,2,3-Triazole Hybrids as Multifunctional Anti-Alzheimer’s Agents” (Molecules, 2023):

Tests used:
[1] = molecular target: T1, eqBuChE (Equus caballus, UniProt P81908); test: Ellman cholinesterase inhibitory assay, eqBuChE (screening and IC50); assay type: biochemical; conditions: for inhibition at 100 µM: compound 100 µM, substrate 3 mM; for IC50: concentration range 1.2-300 µM, BTCI 0.8 mM, read-out: IC50 values for eqBuChE
T1 construct: equine serum butyrylcholinesterase (eqBuChE); purchased Sigma-Aldrich (lyophilized powder, 10.9 U/mg); host or cells: equine serum
T1 sequence (P81908 whole entry): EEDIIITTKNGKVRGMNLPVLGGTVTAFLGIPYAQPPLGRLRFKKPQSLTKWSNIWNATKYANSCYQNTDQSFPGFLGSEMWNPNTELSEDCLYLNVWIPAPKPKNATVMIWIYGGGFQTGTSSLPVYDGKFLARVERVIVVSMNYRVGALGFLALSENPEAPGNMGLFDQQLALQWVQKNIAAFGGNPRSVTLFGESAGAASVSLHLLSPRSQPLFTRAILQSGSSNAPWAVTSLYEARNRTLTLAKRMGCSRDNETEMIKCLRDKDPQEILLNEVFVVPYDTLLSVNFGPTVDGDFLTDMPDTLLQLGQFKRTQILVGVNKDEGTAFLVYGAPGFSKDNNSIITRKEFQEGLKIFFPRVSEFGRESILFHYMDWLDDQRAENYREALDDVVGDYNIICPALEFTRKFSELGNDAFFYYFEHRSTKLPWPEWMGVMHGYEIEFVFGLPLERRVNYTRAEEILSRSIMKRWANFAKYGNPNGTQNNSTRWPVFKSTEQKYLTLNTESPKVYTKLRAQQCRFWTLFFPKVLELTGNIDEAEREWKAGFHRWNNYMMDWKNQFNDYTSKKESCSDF
Protocol: (§1) Firstly, the inhibitory activity of the quercetin-1,2,3-triazole hybrids I–IV was screened in vitro on eeAChE and eqBuChE at a concentration of 100 μM (these enzymes are considered as models of the human isoform). The ChE inhibitory activity of all compounds was evaluated using the method of Ellman.
(§2) The inhibitory activities of title compounds against commercially available cholinesterases (eeAChE) (Electrophorus electricus, Type V-S), eqBuChE (equine serum), were conducted using minor modifications of Ellman’s assay. Nine different concentrations ([…], 37.5, 75, 150, and 300 μM in H2O:DMSO (50:50)) of each test compound were used to determine the enzyme-inhibition activity. Briefly, 55 μL of 50 mM Tris-HCl buffer at pH 8, 25 μL of eqBuChE (0.03 U/mL), 20 μL of the test or standard compounds, and 125 μL of DTNB (0.8 mM) were incubated in 96-well plates at 37 °C for 15 min. Further, 25 μL of the substrate, BTCI (0.8 mM), was added, and the solution was incubated for additional 15 min. Finally, the absorbance was measured at 412 nm wavelength using a Microplate Spectrophotometry (TriStar® S LB 942 model instrument). The IC50 values were determined from the absorbance obtained for various concentrations of the test and the standard compounds. All determinations were performed in triplicate.
(§3) To determine the % of inhibition ([I] = 100 μM), the substrate concentration (acetylthiocholine iodide for AChE; S-butyrylthiocholine iodide for BuChE) was fixed at 3 mM.

[2] = molecular target: T2, eeAChE (Electrophorus electricus, UniProt O42275); test: Ellman cholinesterase inhibitory assay, eeAChE screening; assay type: biochemical; conditions: compound 100 µM; substrate 3 mM
T2 construct: catalogue number not given
T2 sequence (O42275 24-633): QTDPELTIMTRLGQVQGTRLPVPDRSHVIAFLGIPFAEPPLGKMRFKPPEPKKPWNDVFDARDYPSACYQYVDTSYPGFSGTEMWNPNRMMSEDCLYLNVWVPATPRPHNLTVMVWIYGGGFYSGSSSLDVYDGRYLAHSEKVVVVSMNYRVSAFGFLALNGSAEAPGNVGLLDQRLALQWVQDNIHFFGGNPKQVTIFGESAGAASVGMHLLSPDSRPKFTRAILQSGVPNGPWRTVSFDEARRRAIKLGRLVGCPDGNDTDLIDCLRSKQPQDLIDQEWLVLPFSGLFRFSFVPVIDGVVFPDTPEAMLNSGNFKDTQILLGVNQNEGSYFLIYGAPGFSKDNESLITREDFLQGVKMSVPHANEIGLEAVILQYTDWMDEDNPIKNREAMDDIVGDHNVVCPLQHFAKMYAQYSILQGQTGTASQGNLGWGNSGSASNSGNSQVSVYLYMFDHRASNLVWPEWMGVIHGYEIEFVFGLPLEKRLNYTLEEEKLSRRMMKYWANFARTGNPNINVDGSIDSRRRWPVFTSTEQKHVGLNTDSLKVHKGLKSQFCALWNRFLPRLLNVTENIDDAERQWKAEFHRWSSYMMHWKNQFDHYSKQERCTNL
Protocol: as §1, §2, §3

Row | SMILES | inhibition at 100 µM [1] [%] | inhibition at 100 µM [2] [%] | IC50 [1] [µM]
1 | O=c1c(OCCCCn2cc(-c3ccccc3)nn2)c(-c2ccc(OCc3ccccc3)c(OCc3ccccc3)c2)oc2cc(OCc3ccccc3)cc(OCc3ccccc3)c12 [IIIa, 5,7-Bis(benzyloxy)-2-(3,4-bis(benzyloxy)phenyl)-3-(4-(4-phenyl-1H-1,2,3-triazol-1-yl)butoxy)-4H-chromen-4-one] | 46.9 | 40.6 | –
2 | O=c1c(OCCCCn2cc(C3(O)CCCC3)nn2)c(-c2ccc(OCc3ccccc3)c(OCc3ccccc3)c2)oc2cc(OCc3ccccc3)cc(OCc3ccccc3)c12 [IIIc, 5,7-Bis(benzyloxy)-2-(3,4-bis(benzyloxy)phenyl)-3-(4-(4-(1-hydroxycyclopentyl)-1H-1,2,3-triazol-1-yl)butoxy)-4H-chromen-4-one] | 26.9 | 17.2 | –
3 | CC(C)(O)c1cn(CCCCOc2c(-c3ccc(OCc4ccccc4)c(OCc4ccccc4)c3)oc3cc(OCc4ccccc4)cc(OCc4ccccc4)c3c2=O)nn1 [IIId, 5,7-Bis(benzyloxy)-2-(3,4-bis(benzyloxy)phenyl)-3-(4-(4-(2-hydroxypropan-2-yl)-1H-1,2,3-triazol-1-yl)butoxy)-4H-chromen-4-one] | 27.3 | 15.1 | –
4 | O=C1C(=O)N(Cc2cn(CCCCOc3c(-c4ccc(OCc5ccccc5)c(OCc5ccccc5)c4)oc4cc(OCc5ccccc5)cc(OCc5ccccc5)c4c3=O)nn2)c2ccccc21 [IIIf, 1-((1-(4-((5,7-Bis(benzyloxy)-2-(3,4-bis(benzyloxy)phenyl)-4-oxo-4H-chromen-3-yl)oxy)butyl)-1H-1,2,3-triazol-4-yl)methyl)indoline-2,3-dione] | 34.5 | 0 | –
5 | COc1cc(OC)c2c(=O)c(OCCCCn3cc(-c4ccccc4)nn3)c(-c3ccc(OC)c(OC)c3)oc2c1 [IIa, 2-(3,4-Dimethoxyphenyl)-5,7-dimethoxy-3-(4-(4-phenyl-1H-1,2,3-triazol-1-yl)butoxy)-4H-chromen-4-one] | 55.3 | 7.75 | > 300
6 | COc1cc(OC)c2c(=O)c(OCCCCn3cc(C4CC4)nn3)c(-c3ccc(OC)c(OC)c3)oc2c1 [IIb, 2-(3,4-Dimethoxyphenyl)-3-(4-(4-cyclopropyl-1H-1,2,3-triazol-1-yl)butoxy)-5,7-dimethoxy-4H-chromen-4-one] | 54.4 | 0 | > 300
7 | COc1cc(OC)c2c(=O)c(OCCCCn3cc(C4(O)CCCC4)nn3)c(-c3ccc(OC)c(OC)c3)oc2c1 [IIc, 2-(3,4-Dimethoxyphenyl)-3-(4-(4-(1-hydroxycyclopentyl)-1H-1,2,3-triazol-1-yl)butoxy)-5,7-dimethoxy-4H-chromen-4-one] | 69.6 | 0 | > 300
8 | COc1cc(OC)c2c(=O)c(OCCCCn3cc(C(C)(C)O)nn3)c(-c3ccc(OC)c(OC)c3)oc2c1 [IId, 2-(3,4-Dimethoxyphenyl)-3-(4-(4-(2-hydroxypropan-2-yl)-1H-1,2,3-triazol-1-yl)butoxy)-5,7-dimethoxy-4H-chromen-4-one] | 60.6 | 0 | > 300
9 | COc1cc(OC)c2c(=O)c(OCCCCn3cc(COc4cc(C)ccc4C(C)C)nn3)c(-c3ccc(OC)c(OC)c3)oc2c1 [IIe, 2-(3,4-Dimethoxyphenyl)-3-(4-(4-((2-isopropyl-5-methylphenoxy)methyl)-1H-1,2,3-triazol-1-yl)butoxy)-5,7-dimethoxy-4H-chromen-4-one] | 81.7 | 4.13 | 26.6
10 | COc1cc(OC)c2c(=O)c(OCCCCn3cc(CO)nn3)c(-c3ccc(OC)c(OC)c3)oc2c1 [IIg, 2-(3,4-Dimethoxyphenyl)-3-(4-(4-(hydroxymethyl)-1H-1,2,3-triazol-1-yl)butoxy)-5,7-dimethoxy-4H-chromen-4-one] | 53.8 | 0 | > 300
